Test results: PMC3380826 (2012)

Experiments:
[1] = test system: Hum24; d(T2AG3)4 (DNA, G4) TTAGGGTTAGGGTTAGGGTTAGGG; test: CD melting at 295 nm; details: 10 mM Tris-HCl, 0.1 mM EDTA, pH 7.4, pre-formed G4, 2 µM strand
[2] = test system: Hum48; d(T2AG3)8 (DNA, G4) TTAGGGTTAGGGTTAGGGTTAGGGTTAGGGTTAGGGTTAGGGTTAGGG; test: CD melting at 295 nm; details: 10 mM Tris-HCl, 0.1 mM EDTA, pH 7.4, pre-formed G4, 2 µM strand

| ΔTm ([1]; 100 mM K+, ligand:DNA 10) [°C] | ΔTm ([1]; 100 mM Na+, ligand:DNA 10) [°C] | ΔTm ([2]; 100 mM K+, ligand:DNA 10) [°C] | ΔTm ([2]; 100 mM Na+, ligand:DNA 10) [°C] | ΔTm ([1]; 100 mM K+, ligand:DNA 20) [°C] | ΔTm ([2]; 100 mM K+, ligand:DNA 20) [°C] | SMILES |
| --- | --- | --- | --- | --- | --- | --- |
| 22 | 11 | 21 | 13 | – | – | OCCN1CCN(c2ccc3[nH]c(-c4cc(OCCOCCOCCOCCOCCOCCOc5cc(-c6nc7cc(N8CCN(CCO)CC8)ccc7[nH]6)cc(-c6nc7cc(N8CCN(CCO)CC8)ccc7[nH]6)c5)cc(-c5nc6cc(N7CCN(CCO)CC7)ccc6[nH]5)c4)nc3c2)CC1 |
| – | – | – | – | 5 | 9 | CCOc1cc(-c2nc3ccc(N4CCN(CCO)CC4)cc3[nH]2)cc(-c2nc3ccc(N4CCN(CCO)CC4)cc3[nH]2)c1 |
| 12 | – | 18 | – | – | – | OCCN1CCN(c2ccc3[nH]c(-c4cc(OCCOCCOCCOCCOCCOc5cc(-c6nc7cc(N8CCN(CCO)CC8)ccc7[nH]6)cc(-c6nc7cc(N8CCN(CCO)CC8)ccc7[nH]6)c5)cc(-c5nc6cc(N7CCN(CCO)CC7)ccc6[nH]5)c4)nc3c2)CC1 |
| 16 | – | 16 | – | – | – | OCCN1CCN(c2ccc3[nH]c(-c4cc(OCCOCCOCCOCCOc5cc(-c6nc7cc(N8CCN(CCO)CC8)ccc7[nH]6)cc(-c6nc7cc(N8CCN(CCO)CC8)ccc7[nH]6)c5)cc(-c5nc6cc(N7CCN(CCO)CC7)ccc6[nH]5)c4)nc3c2)CC1 |
